The values that follow come from patent publication US20120122180A1, “INC[…] TYPE III […] INTO M[…] OF THE TYPE I AND III […] AND FATTY ACID SYNTHASE FAMILIES” (Salk Institute for Biological Studies, priority 2006, published 2012).

Common to all, as to assay type: biochemical
For experiment [1], the target named is T1, Steely1 C-terminal type III PKS domain (Dictyostelium discoideum, UniProt Q55E72).
T1 construct: poly-histidine (pHIS-8 vector, thrombin-cleavable) (N); made in house; host or cells: E. coli BL21(DE3) or CodonPlus (Stratagene)
T1 sequence (Q55E72 2776-3147): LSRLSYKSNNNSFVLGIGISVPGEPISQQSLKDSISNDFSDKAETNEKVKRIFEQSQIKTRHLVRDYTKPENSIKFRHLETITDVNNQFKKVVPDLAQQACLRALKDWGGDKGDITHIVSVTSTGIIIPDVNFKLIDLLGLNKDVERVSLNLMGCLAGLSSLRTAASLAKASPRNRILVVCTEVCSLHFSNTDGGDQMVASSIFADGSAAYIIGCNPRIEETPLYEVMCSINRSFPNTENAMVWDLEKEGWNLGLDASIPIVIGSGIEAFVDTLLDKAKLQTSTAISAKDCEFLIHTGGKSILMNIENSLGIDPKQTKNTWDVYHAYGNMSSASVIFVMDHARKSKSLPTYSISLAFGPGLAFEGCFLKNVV
Put plainly: In vitro polyketide extension assay with [14-C]malonyl-CoA and CoA-linked starters, TLC/autoradiography. Particulars: heterologously expressed domain, radiolabeled malonyl-CoA extender. The method, then:
(§1) These differences in in vitro starter specificity are consistent with the substantial divergence of these steely active site predicted by homology modeling.
(§2) Standard 100 μL in vitro assays of heterologously expressed Steely C-terminal domains using [14-C]malonyl-CoA and various CoA-linked starters were conducted, extracted with ethyl acetate, analyzed by reverse-phase TLC, and visualized by autoradiography as previously reported.

Experiment [2] addresses T2, Steely2 C-terminal type III PKS domain (Dictyostelium discoideum, UniProt Q54FI3).
T2 construct: poly-histidine (pHIS-8 vector, thrombin-cleavable) (N); made in house; host or cells: E. coli BL21(DE3) or CodonPlus (Stratagene)
T2 sequence (Q54FI3 2595-2968): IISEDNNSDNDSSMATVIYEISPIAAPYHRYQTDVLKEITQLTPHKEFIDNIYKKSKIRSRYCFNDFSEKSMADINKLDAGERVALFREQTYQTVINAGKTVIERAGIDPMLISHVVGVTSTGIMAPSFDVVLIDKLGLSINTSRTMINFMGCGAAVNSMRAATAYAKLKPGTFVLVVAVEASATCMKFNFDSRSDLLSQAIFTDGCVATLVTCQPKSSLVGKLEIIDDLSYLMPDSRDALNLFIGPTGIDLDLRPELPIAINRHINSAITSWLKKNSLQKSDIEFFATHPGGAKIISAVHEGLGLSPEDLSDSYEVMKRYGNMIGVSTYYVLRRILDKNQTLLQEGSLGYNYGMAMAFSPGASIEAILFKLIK
The experiment is described as above. As to conditions: heterologously expressed domain, radiolabeled malonyl-CoA extender. The method, then: as §1, §2

The target in experiment [3] is T3, Steely2 type III PKS domain (Dictyostelium discoideum, UniProt Q54FI3).
T3 construct: poly-histidine (pHIS-8 vector, thrombin-cleavable) (N); made in house; host or cells: E. coli BL21(DE3) or CodonPlus (Stratagene)
T3 sequence (Q54FI3 2595-2968): T2 sequence (Q54FI3 2595-2968)
Put plainly: HPLC-MS-MS analysis of in vitro assays with unlabeled malonyl-CoA. As to conditions: overnight, Bis-Tris Propane pH 7.0. The method, then:
(§3) The related D. discoideum DIF-2 acylphloroglucinol scaffold seems to be derived from a pentanoyl intermediate. Therefore, in vitro assays of each steely C-terminal domain were also primed with butanoyl-CoA (12), as pentanoyl-CoA is not commercially available.
(§4) For HPLC-MS-MS analyses 25 μl injections of similarly prepared overnight reactions (but without organic extraction) buffered with 100 mM Bis-Tris Propane (pH 7.0), using unlabeled malonyl-CoA, were used. LC-MS-MS analyses were carried out on an Agilent 1100 HPLC with an integrated Agilent LC/MSD Trap XCT ion trap mass spectrometer, using a reversed-phase C18 column (4.6×150 mm; Gemini) maintained at 30° C. A gradient mobile phase ramped from 5% to 100% acetonitrile in water (with each solvent containing 0.1% v/v formic acid) between minutes 3 and 13 of a 25-min run using a flow rate of 0.5 ml min^−1 and a 0.1 ml min^−1 post column injection of 20 mM ammonium acetate in water. UV absorbance was monitored at 286 nm.
(§5) PCP was identified by direct HPLC-MS-MS comparison with an authentic synthetic standard, kindly provided by S. Horinouchi and N. Funa. Other hexanoyl- and butanoyl-primed enzymatic products were identified by comparing their relative HPLC elution times and negative MS-MS fragmentation patterns with previously published LC-MS-MS analyses of authentic standards (Funa et al. (2002) “Properties and substrate specificity of RppA, a chalcone synthase-related polyketide synthase in Streptomyces griseus” J Biol Chem 277:4628-4635). EICs with parent ion masses of plausible polyketide products were used to detect trace amounts of minor enzymatic products, but only triketide and tetraketide products were observed.

Experiment [4] addresses T4, Steely1 type III PKS domain (Dictyostelium discoideum, UniProt Q55E72).
T4 construct: poly-histidine (pHIS-8 vector, thrombin-cleavable) (N); made in house; host or cells: E. coli BL21(DE3) or CodonPlus (Stratagene)
T4 sequence (Q55E72 2776-3147): T1 sequence (Q55E72 2776-3147)
The experiment is described as above. Particulars: overnight, Bis-Tris Propane pH 7.0. As to the method: as §3, §4, §5

For the compound `CC(=O)SCCNC(=O)CCNC(=O)[C@H](O)C(C)(C)COP(=O)(O)OP(=O)(O)OC[C@H]1O[C@@H](n2cnc3c(N)ncnc32)[C@H](O)[C@@H]1OP(=O)(O)O` [acetyl-CoA], the “polyketide extension activity with the substance as starter” value (“polyketide extension activity” below) in experiment [1] and in experiment [2] was “Neither enzyme showed significant polyketide extension activity” in each case.
For the compound `CCCC(=O)SCCNC(=O)CCNC(=O)[C@H](O)C(C)(C)COP(=O)(O)OP(=O)(O)OC[C@H]1O[C@@H](n2cnc3c(N)ncnc32)[C@H](O)[C@@H]1OP(=O)(O)O` [butanoyl-CoA], the “enzymatic products of starter-primed assay” value in experiment [3] and in experiment [4] was “no effect on the cyclization fate” throughout.
Consider `CCCCCC(=O)SCCNC(=O)CCNC(=O)[C@H](O)C(C)(C)COP(=O)(O)OP(=O)(O)OC[C@H]1O[C@@H](n2cnc3c(N)ncnc32)[C@H](O)[C@@H]1OP(=O)(O)O` [hexanoyl-CoA], for which the “enzymatic products of starter-primed assay” value in experiment [3] is “catalyzes three rounds of polyketide chain extension and the final CHS-like intramolecular C6 to C1 Claisen condensation”; in experiment [4], “produced only triketide (10) and tetraketide (11) lactonization-derived pyrones”. In addition, the “polyketide extension activity” value in experiment [1] and in experiment [2] was “catalyze iterative polyketide extension” each time.
Turning to `CC(C)CC(=O)SCCNC(=O)CCNC(=O)[C@H](O)C(C)(C)COP(=O)(O)OP(=O)(O)OC[C@H]1O[C@@H](n2cnc3c(N)ncnc32)[C@H](O)[C@@H]1OP(=O)(O)O` [isovaleryl-CoA], the results for the “polyketide extension activity” value in experiment [1] and in experiment [2] were “not Steely1 would accept” and “would accept”, respectively.
Turning to `CC(C)(COP(=O)(O)OP(=O)(O)OC[C@H]1O[C@@H](n2cnc3c(N)ncnc32)[C@H](O)[C@@H]1OP(=O)(O)O)[C@@H](O)C(=O)NCCC(=O)NCCSC(=O)CC(=O)O` [malonyl-CoA], the “polyketide extension activity” value in experiment [1] and in experiment [2] was “Neither enzyme showed significant polyketide extension activity” in each case.
For `CCCCCCCC(=O)SCCNC(=O)CCNC(=O)[C@H](O)C(C)(C)COP(=O)(O)OP(=O)(O)OC[C@H]1O[C@@H](n2cnc3c(N)ncnc32)[C@H](O)[C@@H]1OP(=O)(O)O` [octanoyl-CoA], the “polyketide extension activity” value in experiment [1] is reported as “accepted”; in experiment [2], “only Steely1 accepted”.
On to `CC(C)(COP(=O)(O)OP(=O)(O)OC[C@H]1O[C@@H](n2cnc3c(N)ncnc32)[C@H](O)[C@@H]1OP(=O)(O)O)[C@@H](O)C(=O)NCCC(=O)NCCSC(=O)/C=C/c1ccc(O)cc1` [p-coumaroyl-CoA], for which the “polyketide extension activity” value in experiment [1] and in experiment [2] was “Neither enzyme showed significant polyketide extension activity” throughout.
